ChEMBL document CHEMBL6182910, “Design, Synthesis, and Biological Evaluation of 4-(Difluoromethyl)-1H-imidazole-5-carboxylic Acids/4-(3-Cyanophenoxy)pyrimidine-5-carboxylic Acids as P2Y1 Receptor Antagonists for Ischemic Stroke Treatment” (J Med Chem, 2025)
The source made the active and inactive calls. The calls are words filed in the database; no cut-off is given here.

Key:
Plasma = assay: Anti-platelet aggregation in platelet-rich plasma of male Japanese white rabbit assessed as inhibition of ADP-induced platelet aggregation preincubated for 15 mins followed by ADP addition measured up to 10 mins by Born's turbidometric method; assay type: functional, cell-free; details: Oryctolagus cuniculus
P2Y purinoceptor 1 = P2Y purinoceptor 1 (Rattus norvegicus, UniProt P49651); assay: Antagonist activity at P2Y1 receptor in platelet-rich plasma of rat assessed as inhibition of ADP-induced cytosolic Ca2+ level pretreated for 5 mins followed by ADP addition by FLUO-4 AM dye based analysis; assay type: functional, cell-free
[1] = target: P2Y purinoceptor 12 (Rattus norvegicus) (UniProt Q9EPX4); assay: Antagonist activity at P2Y12 receptor in platelet-rich plasma of male Sprague-Dawley rat assessed as inhibition of VASP phosphorylation at Ser239 at 30 uM pretreated for 10 mins followed by PGE1/ADP addition measured after 10 mins by ELISA relative to control; assay type: cell-free; details: time 20.0 min
[2] = Metabolic stability in human liver microsomes assessed as parent compound remaining at 1 uM measured after 3 hrs in presence of NADPH by LC-MS/MS analysis; assay type: ADME, Microsome; details: read-out: Stability
[3] = Metabolic stability in rat liver microsomes assessed as parent compound remaining at 1 uM measured after 3 hrs in presence of NADPH by LC-MS/MS analysis; assay type: ADME, Microsome; details: read-out: Stability
CYP2A6 = target: T1, CYP2A6 (Homo sapiens, UniProt P11509); assay: Inhibition of CYP2A6 in human liver microsomes using coumarin as substrate at 10 uM preincubated for 5 min followed by NADPH addition measured after 120 mins by LC-MS/MS analysis relative to control; assay type: ADME, Microsome; details: probe coumarin, time 125 min
T1 sequence (P11509 whole entry): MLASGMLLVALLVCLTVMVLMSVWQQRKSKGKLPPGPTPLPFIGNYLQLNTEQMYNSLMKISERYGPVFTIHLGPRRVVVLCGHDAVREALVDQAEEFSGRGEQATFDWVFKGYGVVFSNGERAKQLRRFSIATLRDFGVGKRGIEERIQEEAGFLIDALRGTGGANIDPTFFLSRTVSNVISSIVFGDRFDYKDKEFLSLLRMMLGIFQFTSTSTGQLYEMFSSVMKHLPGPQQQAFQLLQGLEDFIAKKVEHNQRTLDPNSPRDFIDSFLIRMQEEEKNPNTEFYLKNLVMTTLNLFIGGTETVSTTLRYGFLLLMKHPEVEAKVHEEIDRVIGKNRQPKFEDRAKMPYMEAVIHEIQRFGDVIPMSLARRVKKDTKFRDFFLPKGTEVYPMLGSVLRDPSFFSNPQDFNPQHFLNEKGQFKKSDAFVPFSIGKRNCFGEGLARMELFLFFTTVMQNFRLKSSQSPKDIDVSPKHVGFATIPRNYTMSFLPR

CYP2C9 = CYP2C9 (Homo sapiens, UniProt P11712); assay: Inhibition of CYP2C9 in human liver microsomes using tolbutamide as substrate at 10 uM preincubated for 5 min followed by NADPH addition measured after 120 mins by LC-MS/MS analysis relative to control; assay type: ADME, Microsome; details: probe tolbutamide, time 125 min
CYP2C19 = CYP2C19 (Homo sapiens, UniProt P33261); assay: Inhibition of CYP2C19 in human liver microsomes using S-mephenytoin as substrate at 10 uM preincubated for 5 min followed by NADPH addition measured after 120 mins by LC-MS/MS analysis relative to control; assay type: ADME, Microsome; details: probe S-mephenytoin, time 125 min
[4] = Protein binding in rat plasma at 10 uM incubated for 12 hrs by equilibrium dialysis method; assay type: ADME, cell-free; details: read-out: PPB (converted)
[5] = Cmax male Sprague-Dawley rat at 10 mg/kg, po measured up to 24 hrs by LC-MS/MS analysis; assay type: ADME, organism-based; details: in vivo
[6] = AUC (0 to infinity) male Sprague-Dawley rat at 10 mg/kg, po measured up to 24 hrs by LC-MS/MS analysis; assay type: ADME, organism-based; details: in vivo
[7] = Clearance male Sprague-Dawley rat at 10 mg/kg, po measured up to 24 hrs by LC-MS/MS analysis; assay type: ADME, organism-based; details: in vivo
[8] = Cmax male Sprague-Dawley rat at 10 mg/kg, iv measured up to 24 hrs by LC-MS/MS analysis; assay type: ADME, organism-based; details: in vivo
[9] = AUC (0 to infinity) male Sprague-Dawley rat at 10 mg/kg, iv measured up to 24 hrs by LC-MS/MS analysis; assay type: ADME, organism-based; details: in vivo
[10] = AUC in brain of male Sprague-Dawley rat at 10 mg/kg, iv measured for 0.083 to 24 hrs by LC-MS/MS analysis; assay type: ADME, organism-based; details: in vivo, time 0.083-24 hrs
[11] = AUC in plasma of male Kunming mouse at 10 mg/kg, iv measured for 0.083 to 24 hrs by LC-MS/MS analysis; assay type: ADME, organism-based; details: time 0.083-24 hrs
[12] = Ratio of AUC in brain to plasma of male Kunming mouse at 10 mg/kg, iv measured for 0.083 to 24 hrs by LC-MS/MS analysis; assay type: ADME, organism-based; details: brain and plasma, time 0.083-24 hrs, read-out: Ratio AUC
Rattus norvegicus [13] = assay: Anti-platelet aggregation in Sprague-Dawley rat assessed as inhibition of ADP-induced platelet aggregation at 10 mg/kg, po measured for 15 mins in presence of 10 uM ADP by cell counter analysis relative to control; assay type: functional; details: 0.25 h
Rattus norvegicus [14] = assay: Neuroprotective activity in MCAO-induced brain damage Sprague-Dawley rat model assessed as reduction in brain infarction size administered intravenously immediately after arterial occlusion measured after 24 hrs by TTC staining based analysis; assay type: functional; details: route iv
Rattus norvegicus [15] = assay: Neuroprotective activity in MCAO-induced brain damage Sprague-Dawley rat model assessed as reduction in neurological deficit scores at 10 mg/kg, iv administered immediately after arterial occlusion measured after 24 hrs by Longa's method; assay type: functional, organism-based
Rattus norvegicus [16] = assay: Neuroprotective activity in MCAO-induced brain damage Sprague-Dawley rat model assessed as plasma MDA level at 2.5 to 10 mg/kg, iv administered immediately after arterial occlusion measured after 24 hrs (reference value: 51.7 %); assay type: functional; details: dose 2.5-10 mg/kg
Rattus norvegicus [17] = assay: Neuroprotective activity in MCAO-induced brain damage Sprague-Dawley rat model assessed as plasma MDA level at 2.5 to 10 mg/kg, iv administered immediately after arterial occlusion measured after 24 hrs (reference value: 7.93 nmol/ml); assay type: functional; details: dose 2.5-10 mg/kg
Rattus norvegicus [18] = assay: Neuroprotective activity in MCAO-induced brain damage Sprague-Dawley rat model assessed as improvement in hippocampal neuron damage administered intravenously immediately after arterial occlusion measured after 24 hrs by H and E staining based analysis; assay type: functional, organism-based; details: dose 2.5-10 mg/kg, route iv
Rattus norvegicus [19] = assay: Neuroprotective activity in MCAO-induced brain damage Sprague-Dawley rat model assessed as tightly arranged hippocampal neurons at 2.5 to 10 mg/kg, iv administered immediately after arterial occlusion measured after 24 hrs by H and E staining based analysis; assay type: functional, organism-based; details: dose 2.5-10 mg/kg
Rattus norvegicus [20] = assay: Neuroprotective activity in MCAO-induced brain damage Sprague-Dawley rat model assessed as clear nucleoli with uniform staining at 2.5 to 10 mg/kg, iv administered immediately after arterial occlusion measured after 24 hrs by H and E staining based analysis; assay type: functional, organism-based; details: dose 2.5-10 mg/kg
Rattus norvegicus [21] = assay: Neuroprotective activity in MCAO-induced brain damage Sprague-Dawley rat model assessed as transparent cytoplasm at 2.5 to 10 mg/kg, iv administered immediately after arterial occlusion measured after 24 hrs by H and E staining based analysis; assay type: functional, organism-based; details: dose 2.5-10 mg/kg

Chain of P2Y purinoceptor 12 (Rattus norvegicus) (Q9EPX4 whole entry): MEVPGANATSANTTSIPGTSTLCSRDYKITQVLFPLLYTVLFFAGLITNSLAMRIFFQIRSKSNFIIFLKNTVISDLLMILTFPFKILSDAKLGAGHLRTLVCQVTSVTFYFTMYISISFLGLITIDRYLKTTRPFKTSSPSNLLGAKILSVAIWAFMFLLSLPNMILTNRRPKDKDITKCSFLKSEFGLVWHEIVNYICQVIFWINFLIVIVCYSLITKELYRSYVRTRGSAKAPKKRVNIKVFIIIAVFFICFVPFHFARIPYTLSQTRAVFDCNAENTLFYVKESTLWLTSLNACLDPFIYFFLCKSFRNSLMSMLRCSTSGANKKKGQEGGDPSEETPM
Chain of CYP2C9 (P11712 whole entry): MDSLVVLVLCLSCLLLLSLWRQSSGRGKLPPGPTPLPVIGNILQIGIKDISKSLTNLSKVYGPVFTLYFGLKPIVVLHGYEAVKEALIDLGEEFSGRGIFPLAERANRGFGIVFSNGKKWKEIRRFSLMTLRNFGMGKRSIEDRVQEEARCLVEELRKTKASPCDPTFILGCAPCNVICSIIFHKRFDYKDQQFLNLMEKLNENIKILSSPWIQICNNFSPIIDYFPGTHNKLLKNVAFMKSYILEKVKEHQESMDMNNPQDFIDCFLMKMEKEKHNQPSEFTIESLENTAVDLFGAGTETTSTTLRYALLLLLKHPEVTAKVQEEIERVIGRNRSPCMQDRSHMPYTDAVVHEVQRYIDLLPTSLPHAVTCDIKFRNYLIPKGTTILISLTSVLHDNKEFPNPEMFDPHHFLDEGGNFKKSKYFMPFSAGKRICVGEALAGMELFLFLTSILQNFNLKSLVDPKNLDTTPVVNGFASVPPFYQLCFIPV
Chain of CYP2C19 (P33261 whole entry): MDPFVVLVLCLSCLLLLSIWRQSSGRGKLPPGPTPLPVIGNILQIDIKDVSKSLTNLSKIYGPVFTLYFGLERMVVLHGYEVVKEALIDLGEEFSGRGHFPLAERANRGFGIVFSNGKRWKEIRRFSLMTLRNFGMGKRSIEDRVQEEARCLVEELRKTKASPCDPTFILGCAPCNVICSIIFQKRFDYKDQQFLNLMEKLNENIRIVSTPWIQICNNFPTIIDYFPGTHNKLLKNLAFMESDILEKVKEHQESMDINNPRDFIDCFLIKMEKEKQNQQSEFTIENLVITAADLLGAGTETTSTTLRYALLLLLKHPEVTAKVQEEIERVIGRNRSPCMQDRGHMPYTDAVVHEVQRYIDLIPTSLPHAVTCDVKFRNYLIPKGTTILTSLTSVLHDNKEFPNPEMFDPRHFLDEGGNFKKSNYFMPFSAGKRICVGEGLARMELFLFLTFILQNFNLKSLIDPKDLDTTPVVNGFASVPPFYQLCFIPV
Chain of P2Y purinoceptor 1 (P49651 whole entry): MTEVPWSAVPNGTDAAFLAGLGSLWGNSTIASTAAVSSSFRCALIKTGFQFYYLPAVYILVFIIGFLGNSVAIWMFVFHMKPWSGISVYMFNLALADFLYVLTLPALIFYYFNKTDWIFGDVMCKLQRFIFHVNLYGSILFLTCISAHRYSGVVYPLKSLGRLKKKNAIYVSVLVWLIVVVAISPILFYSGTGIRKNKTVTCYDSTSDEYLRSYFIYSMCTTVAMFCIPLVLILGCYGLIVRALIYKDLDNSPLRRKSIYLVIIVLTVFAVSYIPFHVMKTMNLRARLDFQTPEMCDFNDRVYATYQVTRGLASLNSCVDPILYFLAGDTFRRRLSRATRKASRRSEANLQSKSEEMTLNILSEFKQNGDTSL

Compound | IC50 (Plasma) | IC50 (P2Y purinoceptor 1) | inhibition [1] | remaining at 3 h, 1 µM [2] | remaining at 3 h, 1 µM [3] | inhibition at 2 h, 10 µM (CYP2A6) | inhibition at 2 h, 10 µM (CYP2C9) | inhibition at 2 h, 10 µM (CYP2C19) | fraction unbound at 12 h, 10 µM [4] | CL/F [7] | Cmax [8] | AUC(0-inf) [9] | AUC [10] | AUC [11] | Kp [12] | inhibition in vivo at 10 mg/kg (Rattus norvegicus [13]) | ED50 (Rattus norvegicus [14]) | Activity (Rattus norvegicus [15]) | Activity (Rattus norvegicus [16]) | Activity (Rattus norvegicus [17]) | also measured
N#Cc1cccc(Oc2nc(-c3cccc(C#N)c3)ncc2C(=O)O)c1 | 2640 nM | 2460 nM | 29.3% | 76.9% | 71.5% | -17.7% | 26.3% | 9.7% | 0.046 | 169 mL/min/kg | 48200 ng/mL | 23800 ng·h/mL | 18.55 µg·h/g | 5360 ng·h/mL | 2.39 | 37.2% | 4.6 mg/kg | Active; Activity Was Less Than Bptu | 32% | 4.37 nmol/mL | Cmax ([5]; po, 10 mg/kg, 24 h): 610 ng/mL; AUC ([6]; po, 10 mg/kg, 24 h): 986 ng·h/mL; Activity (Rattus norvegicus [18]): Dose-dependent-effect; Activity Comparable To Hnw001, Bptu, Edaravone At 10 Mg/Kg; Activity (Rattus norvegicus [19]): Active; Activity (Rattus norvegicus [20]): Active; Activity (Rattus norvegicus [21]): Active
N#Cc1cccc(-c2nc(C(F)F)c(C(=O)O)n2OCc2csc(N)n2)c1 | 1860 nM | 2200 nM | 18.4% | 92.5% | 99.4% | -13.5% | 9.7% | 27.4% | 0.074 | 4630 mL/min/kg | 44300 ng/mL | 11400 ng·h/mL | 1.02 µg·h/g | 650 ng·h/mL | 1.08 | 38.8% | 8.39 mg/kg | Active; Activity Was Less Than Bptu | 32% | 4.37 nmol/mL | Cmax ([5]; male, Sprague-Dawley, read-out: Cmax): 480 ng/mL; AUC(0-inf) ([6]; male, Sprague-Dawley): 36 ng·h/mL; Activity (Rattus norvegicus [18]): Dose-dependent-effect; Activity Comparable To Hnw001, Bptu, Edaravone At 10 Mg/Kg; Activity (Rattus norvegicus [19]): Active; Activity (Rattus norvegicus [20]): Active; Activity (Rattus norvegicus [21]): Active
